The record followed here is US20220008425A1, “Pharmaceutical Composition for Treating B-Cell Lymphoma” (FUNDAN UNIVERSITY SHANGHAI CANER CENTER, priority 2018, published 2022).

The test system of assay [1] is AKT phosphorylation, SOX2, FGFR1/2 and CSC-associated molecules in NU-DUL-1-RCHO cells. Nature of the assay: Immunoblot analysis. It is filed as cell-based, human.
A further assay concerns LY8-RCHO cells. Nature of the assay: Aldefluor analysis (ALDH1+ cells). It is filed as cell-based, human. The procedure:
(§1) ALDH1 is a selectable marker for a variety of normal and cancer stem cells, including hematopoietic stem cells. Therefore, we assessed the number of cancer stem cells in hematopoietic malignancies by detecting ALDH1 positive cells. As previously described, we used an ALDEFLUOR™ kit (StemCell Technologies, Vancouver, BC, CA) to detect populations with high ALDH1 activity. Briefly, 1×10^6 cells were suspended in 1 mL of assay buffer containing 1 μM of BAAA, a substrate of […]. Suspended cells were then equally divided into two samples, one as a negative control and the other as a test sample. To form the negative control, […] of DEAB, a specific ALDH inhibitor, was added to one equally-divided sample. Cells were then incubated at 37° C. for 30 minutes prior to flow cytometry analysis.

Another assay deals with NU-DUL-1-RCHO cells. Nature of the assay: Aldefluor analysis (ALDH1+ cells). The assay is classed as cell-based, human. The protocol:
as §1

In a further assay the test system is LY8-RCHO-Luc cells. Nature of the assay: Transplantation model, bioluminescence tumor growth and survival. The assay is classed as in vivo. The settings on record: SCID mice bearing LY8-RCHO-Luc cells; for tumor growth (total photon flux): dosing per Table 1.
Assay [2] deals with SOX2 in tumor tissues grown from LY8-RCHO-Luc cells. Nature of the assay: SOX2 immunohistochemical staining of tumor tissues from the transplantation model. The settings on record: tumors from LY8-RCHO-Luc cells; compared with saline control. The assay is classed as in vivo, SCID mice. The source says:
(§2) Construction of a transplantation model: we transduced LY8-RCHO cells and NU-DUL-1-RCHO cells with lentiviruses overexpressing the firefly luciferase gene to generate stable cells expressing firefly luciferase, referred to as LY8-RCHO-Luc cells and NU-DUL-1-RCHO-Luc cells, respectively. 8-week-old female SCID mice were purchased from SLAC (Shanghai laboratory animal center). The LY8-RCHO-Luc cells and NU-DUL-1-RCHO-Luc cells were resuspended in PBS prior to intraperitoneal injection of 1.5×10^7 cells per mouse. After intraperitoneal injection of the LY8-RCHO-Luc cells, mice were randomized into 6 groups (7 mice in every group) and given saline, R-CHOP, duvelisib, abemaciclib, R-CHOP+duvelisib, and R-CHOP+abemaciclib, respectively. Mice inoculated with the NU-DUL-1-RCHO-Luc cells were randomly divided into 6 groups (7 mice in every group), and were given saline, R-CHOP, duvelisib, AZD4547, R-CHOP+duvelisib, and R-CHOP+AZD4547, respectively. […] Tumor growth was monitored by bioluminescence at day 50 and day 90 after inoculation. For in vivo luminescence imaging, D-luciferin (Promega, Madison, Wis.) was intraperitoneally injected into mice (150 mg/kg). […] Luminescence images were captured with an exposure time of 30 seconds and the signal intensity of the tumor was measured by using Bruker MI software. The survival time of each mouse was recorded. […]
(§3) Tumor tissues from patients or animal models were fixed with 4% formalin, embedded in paraffin and sectioned. […] Immunoreactivity was then detected by using a GTVision III immunohistochemical detection kit (GK500705; Gene Tech Inc., Shanghai, China) according to its instructions. Quantitative scoring of immunostaining for SOX2, p-AKT, CDK6, FGFR1 and FGFR2 was performed on three independent sections under the microscope, according to the formula: score=3 (strong positive)×percentage+2 (medium positive)×percentage+1 (weak positive)×percentage+0 (negative)×percentage.

Assay [3] has as its system SOX2 in tumor tissues grown from NU-DUL-1-RCHO-Luc cells. The description is as above. The assay is classed as in vivo, SCID mice. The settings on record: tumors from NU-DUL-1-RCHO-Luc cells; compared with saline control.
Excerpt: as §2, §3

Entries after “also recorded” stand apart in the source; their conditions may differ.

As to `C[C@H](Nc1ncnc2[nH]cnc12)c1cc2cccc(Cl)c2c(=O)n1-c1ccccc1` [duvelisib], the “AKT phosphorylation and expression of SOX2 and FGFR1/2” value in assay [1] was “reduces expression of SOX2 and FGFR1/2 by inhibiting AKT phosphorylation; also recorded: prevented phosphorylation of AKT and induced degradation of SOX2”. The “levels of CSC-associated molecules (OCT4, NANOG, KLF4, c-MYC, CD34, CD133)” value in assay [1] is given as “significantly reduced levels of CSC-associated molecules in the RCHO-resistant cells”. Also, the “proportion of ALDH1+ cells (CSCs)” value was “significantly reduced ALDH1+ subpopulations in LY8-RCHO and NU-DUL-1-RCHO cells” with LY8-RCHO cells; “significantly reduced ALDH1+ subpopulations in LY8-RCHO and NU-DUL-1-RCHO cells” in the assay on NU-DUL-1-RCHO cells. The “tumor growth (total photon flux)” value is recorded as “significantly inhibited tumor growth; also recorded: completely inhibited tumor development” in the assay on LY8-RCHO-Luc cells (inhibitor combined with R-CHOP); “neither duvelisib nor abemaciclib alone inhibited tumor growth or prolonged the survival rate; also recorded: accelerated tumor growth compared with normal saline, although this difference was not statistically significant” in the assay on LY8-RCHO-Luc cells (regimen or inhibitor used alone, vs saline, day 50 and 90). The survival entry with LY8-RCHO-Luc cells (inhibitor combined with R-CHOP, experiment ended at day 120) is “prolonged the survival rate compared with R-CHOP or an inhibitor alone; also recorded: all treated mice survived until the end of the experiment at day 120”. Moreover, the “SOX2 expression level in tumor tissue (IHC)” value in assay [2] and in assay [3] was “significantly reduced the expression levels of SOX2 compared with a saline control” in each case.
